# pEC50: −log10 of the molar value.
# Columns and labels:
# [1] = target: Endothelin receptor type B (Homo sapiens) (UniProt P24530); assay: Inhibition of human ETB receptor at 3 uM by radioligand binding assay
# [2] = Cmax in monkey at 0.25 mg/kg, iv and 2.5 mg/kg, po; assay type: ADME, organism-based, Macaca mulatta; settings: rhesus monkey, in vivo
# [3] = target: Muscarinic acetylcholine receptor M3 (Homo sapiens) (UniProt P20309); assay: Agonist activity at muscarinic M3 receptor (unknown origin) at 0.3 uM by calcium mobilization assay; assay type: functional
# [4] = target: Histamine H2 receptor (Homo sapiens) (UniProt P25021); assay: Inhibition of human histamine H2 receptor at 3 uM by radioligand binding assay
# [5] = target: Glutamate NMDA receptor (Rattus norvegicus) (UniProt P35439+Q00959+Q00960+Q00961+Q62645+Q8VHN2+Q9R1M7); assay: Inhibition of rat NMDA receptor agonist binding site at 3 uM by radioligand binding assay; assay type: protein-complex assay
# [6] = target: Sodium-dependent serotonin transporter (Homo sapiens) (UniProt P31645); assay: Inhibition of human SERT at 3 uM by radioligand binding assay
# [7] = target: Endothelin-1 receptor (Homo sapiens) (UniProt P25101); assay: Inhibition of human ETA receptor at 3 uM by radioligand binding assay
# [8] = target: Adenosine receptor A1 (Homo sapiens) (UniProt P30542); assay: Inhibition of human adenosine A1 receptor at 3 uM by radioligand binding assay
# Rattus norvegicus [9] = species: Rattus norvegicus; assay: Inhibition of rat GABAB type receptor at 3 uM by radioligand binding assay
# Rattus norvegicus [10] = species: Rattus norvegicus; assay: Inhibition of rat Rolipram binding site at 3 uM by radioligand binding assay
# [11] = target: Alpha-1B adrenergic receptor (Rattus norvegicus) (UniProt P15823); assay: Inhibition of rat alpha1B adrenergic receptor at 3 uM by radioligand binding assay
# [12] = target: Kappa-type opioid receptor (Homo sapiens) (UniProt P41145); assay: Inhibition of human kappa opioid receptor at 3 uM by radioligand binding assay
# [13] = Half life in monkey at 0.25 mg/kg, iv and 2.5 mg/kg, po; assay type: ADME, organism-based, Macaca mulatta; settings: rhesus monkey, in vivo
# [14] = target: Neuronal acetylcholine receptor subunit alpha-7 (Rattus norvegicus) (UniProt Q05941); assay: Inhibition of rat nAChR alpha7 at 3 uM by methyllycaconitine binding assay
# [15] = target: T1, Muscarinic acetylcholine receptor M5 (Homo sapiens) (UniProt P08912); assay: Agonist activity at muscarinic M5 receptor (unknown origin) at 10 uM by calcium mobilization assay; assay type: functional
# T1 sequence (whole entry): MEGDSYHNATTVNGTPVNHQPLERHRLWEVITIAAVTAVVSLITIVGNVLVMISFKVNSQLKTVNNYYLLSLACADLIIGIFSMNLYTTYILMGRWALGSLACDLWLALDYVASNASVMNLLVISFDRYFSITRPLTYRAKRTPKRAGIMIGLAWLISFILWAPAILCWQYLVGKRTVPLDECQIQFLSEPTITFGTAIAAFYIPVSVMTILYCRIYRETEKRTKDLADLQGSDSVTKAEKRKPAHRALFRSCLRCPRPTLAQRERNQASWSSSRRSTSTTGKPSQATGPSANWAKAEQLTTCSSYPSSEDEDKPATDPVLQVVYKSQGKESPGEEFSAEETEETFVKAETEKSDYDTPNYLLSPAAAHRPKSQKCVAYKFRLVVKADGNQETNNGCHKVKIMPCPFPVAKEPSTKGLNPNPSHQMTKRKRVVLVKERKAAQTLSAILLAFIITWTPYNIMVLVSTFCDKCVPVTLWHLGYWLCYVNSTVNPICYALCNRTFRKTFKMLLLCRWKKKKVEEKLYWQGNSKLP
# [16] = Cmax in rat at 0.25 mg/kg, iv and 2.5 mg/kg, po; assay type: ADME, organism-based; settings: in vivo
# Homo sapiens = species: Homo sapiens; assay: Inhibition of human nicotinic acetylcholine receptor at 3 uM by radioligand binding assay
# [17] = target: Neuronal acetylcholine receptor; alpha4/beta2 (Rattus norvegicus) (UniProt P09483+P12390); assay: Displacement of [3H]cytisine from rat alpha4beta2 nAChR; assay type: protein-complex assay; settings: concentration not given here
# [18] = target: L-type calcium channel, benzothiazepine binding site (Rattus norvegicus, UniProt P22002+P27732+Q02485); assay: Inhibition of rat L-type calcium channel benzothiazepine binding site at 3 uM by radioligand binding assay; assay type: protein assay
# Rattus norvegicus [19] = species: Rattus norvegicus; assay: Inhibition of rat thyroid hormone receptor at 3 uM by radioligand binding assay
# [20] = target: T2, Muscarinic acetylcholine receptor M1 (Homo sapiens) (UniProt P11229); assay: Intrinsic activity at muscarinic M1 receptor (unknown origin) by calcium mobilization assay; assay type: functional
# T2 sequence (whole entry): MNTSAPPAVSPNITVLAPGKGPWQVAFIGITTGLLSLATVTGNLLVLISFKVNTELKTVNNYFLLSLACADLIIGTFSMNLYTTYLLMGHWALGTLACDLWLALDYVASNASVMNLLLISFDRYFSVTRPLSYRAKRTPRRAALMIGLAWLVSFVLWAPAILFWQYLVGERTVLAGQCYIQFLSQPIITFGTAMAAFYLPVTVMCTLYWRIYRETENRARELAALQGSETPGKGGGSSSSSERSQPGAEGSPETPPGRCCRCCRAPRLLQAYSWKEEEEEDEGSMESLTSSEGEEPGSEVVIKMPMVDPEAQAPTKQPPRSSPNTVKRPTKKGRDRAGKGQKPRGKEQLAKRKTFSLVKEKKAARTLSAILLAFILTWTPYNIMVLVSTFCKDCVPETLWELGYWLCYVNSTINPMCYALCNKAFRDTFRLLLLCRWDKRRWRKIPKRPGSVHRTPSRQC
# [21] = target: Glucocorticoid receptor (Homo sapiens) (UniProt P04150); assay: Inhibition of human glucocortlicoid receptor at 3 uM by radioligand binding assay
# [22] = target: Sigma non-opioid intracellular receptor 1 (Homo sapiens) (UniProt Q99720); assay: Inhibition of human sigma1 receptor at 3 uM by radioligand binding assay
# [23] = target: cAMP and cAMP-inhibited cGMP 3',5'-cyclic phosphodiesterase 10A (Homo sapiens) (UniProt Q9Y233); assay: Inhibition of human PDE10A1 at 3 uM by radioligand binding assay
# [24] = target: T2, Muscarinic acetylcholine receptor M1 (Homo sapiens); assay: Agonist activity at muscarinic M1 receptor (unknown origin) at 0.3 uM by calcium mobilization assay; assay type: functional
# Oryctolagus cuniculus = species: Oryctolagus cuniculus; assay: Inhibition of rabbit purinergic P2X receptor at 3 uM by radioligand binding assay
# [25] = target: Cannabinoid receptor 1 (Homo sapiens) (UniProt P21554); assay: Inhibition of human CB1 receptor at 3 uM by radioligand binding assay
# [26] = Volume of distribution at steady state in monkey at 0.25 mg/kg, iv and 2.5 mg/kg, po; assay type: ADME, organism-based, Macaca mulatta; settings: rhesus monkey, in vivo, read-out: Vdss
# [27] = target: Muscarinic acetylcholine receptor M4 (Homo sapiens, UniProt P08173); assay: Agonist activity at muscarinic M4 receptor (unknown origin) by calcium mobilization assay; assay type: functional
# Muscarinic acetylcholine receptor M4, sequence (P08173 whole entry): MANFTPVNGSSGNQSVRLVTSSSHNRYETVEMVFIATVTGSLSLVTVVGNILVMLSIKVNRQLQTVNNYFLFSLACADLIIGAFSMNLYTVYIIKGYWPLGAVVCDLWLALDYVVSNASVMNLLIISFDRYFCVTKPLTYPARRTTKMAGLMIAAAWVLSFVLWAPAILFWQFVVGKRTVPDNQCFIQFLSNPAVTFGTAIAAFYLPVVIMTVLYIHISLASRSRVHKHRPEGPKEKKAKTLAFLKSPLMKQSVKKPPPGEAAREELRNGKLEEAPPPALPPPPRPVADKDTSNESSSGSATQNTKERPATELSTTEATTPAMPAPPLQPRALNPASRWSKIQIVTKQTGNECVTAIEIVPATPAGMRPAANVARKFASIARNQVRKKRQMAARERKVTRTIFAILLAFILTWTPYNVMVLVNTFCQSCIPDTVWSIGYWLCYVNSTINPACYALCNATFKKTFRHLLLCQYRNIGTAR
# Neuronal acetylcholine receptor subunit alpha-7 (Rattus norvegicus), sequence (Q05941 whole entry): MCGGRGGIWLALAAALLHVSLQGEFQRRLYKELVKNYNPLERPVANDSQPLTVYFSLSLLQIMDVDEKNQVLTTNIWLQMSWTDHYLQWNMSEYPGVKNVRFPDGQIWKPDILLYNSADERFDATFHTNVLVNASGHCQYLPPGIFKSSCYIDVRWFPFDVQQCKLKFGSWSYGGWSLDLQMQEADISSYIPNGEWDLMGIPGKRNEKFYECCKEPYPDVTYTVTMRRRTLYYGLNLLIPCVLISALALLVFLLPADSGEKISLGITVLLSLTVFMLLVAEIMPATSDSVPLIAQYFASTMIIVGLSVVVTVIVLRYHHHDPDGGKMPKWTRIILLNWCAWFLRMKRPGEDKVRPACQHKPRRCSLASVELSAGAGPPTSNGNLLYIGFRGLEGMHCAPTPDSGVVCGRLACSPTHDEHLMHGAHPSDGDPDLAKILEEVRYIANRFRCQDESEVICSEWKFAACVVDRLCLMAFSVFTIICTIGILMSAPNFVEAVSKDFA
# Adenosine receptor A1 (Homo sapiens), sequence (P30542 whole entry): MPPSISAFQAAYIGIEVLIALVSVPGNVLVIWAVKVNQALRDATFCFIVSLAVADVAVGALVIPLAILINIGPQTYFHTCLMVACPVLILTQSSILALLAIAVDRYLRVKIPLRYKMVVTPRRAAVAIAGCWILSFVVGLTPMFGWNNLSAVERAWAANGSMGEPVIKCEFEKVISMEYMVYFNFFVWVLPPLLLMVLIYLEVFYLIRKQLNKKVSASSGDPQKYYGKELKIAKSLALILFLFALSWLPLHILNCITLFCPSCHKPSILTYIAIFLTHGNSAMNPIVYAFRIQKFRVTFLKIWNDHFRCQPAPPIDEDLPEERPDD
# Cannabinoid receptor 1 (Homo sapiens), sequence (P21554 whole entry): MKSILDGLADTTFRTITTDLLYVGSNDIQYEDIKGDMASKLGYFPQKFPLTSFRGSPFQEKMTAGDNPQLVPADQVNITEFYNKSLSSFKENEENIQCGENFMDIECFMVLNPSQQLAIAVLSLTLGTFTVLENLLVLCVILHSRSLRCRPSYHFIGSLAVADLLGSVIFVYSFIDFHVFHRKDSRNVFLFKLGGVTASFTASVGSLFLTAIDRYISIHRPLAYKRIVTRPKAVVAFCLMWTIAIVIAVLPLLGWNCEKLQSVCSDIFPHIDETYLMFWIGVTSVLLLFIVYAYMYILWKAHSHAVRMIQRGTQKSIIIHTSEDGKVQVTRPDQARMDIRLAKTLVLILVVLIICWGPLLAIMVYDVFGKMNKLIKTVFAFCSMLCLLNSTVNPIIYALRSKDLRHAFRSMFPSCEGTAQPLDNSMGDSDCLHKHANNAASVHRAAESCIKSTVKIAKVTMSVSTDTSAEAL
# Sigma non-opioid intracellular receptor 1 (Homo sapiens), sequence (Q99720 whole entry): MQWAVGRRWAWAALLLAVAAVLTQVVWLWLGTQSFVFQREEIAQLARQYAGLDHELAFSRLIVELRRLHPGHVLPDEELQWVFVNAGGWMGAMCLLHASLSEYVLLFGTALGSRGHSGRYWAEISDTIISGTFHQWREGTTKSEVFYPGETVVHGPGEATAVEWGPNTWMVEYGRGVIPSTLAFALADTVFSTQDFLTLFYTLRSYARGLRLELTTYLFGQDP
# cAMP and cAMP-inhibited cGMP 3',5'-cyclic phosphodiesterase 10A (Homo sapiens), sequence (Q9Y233 whole entry): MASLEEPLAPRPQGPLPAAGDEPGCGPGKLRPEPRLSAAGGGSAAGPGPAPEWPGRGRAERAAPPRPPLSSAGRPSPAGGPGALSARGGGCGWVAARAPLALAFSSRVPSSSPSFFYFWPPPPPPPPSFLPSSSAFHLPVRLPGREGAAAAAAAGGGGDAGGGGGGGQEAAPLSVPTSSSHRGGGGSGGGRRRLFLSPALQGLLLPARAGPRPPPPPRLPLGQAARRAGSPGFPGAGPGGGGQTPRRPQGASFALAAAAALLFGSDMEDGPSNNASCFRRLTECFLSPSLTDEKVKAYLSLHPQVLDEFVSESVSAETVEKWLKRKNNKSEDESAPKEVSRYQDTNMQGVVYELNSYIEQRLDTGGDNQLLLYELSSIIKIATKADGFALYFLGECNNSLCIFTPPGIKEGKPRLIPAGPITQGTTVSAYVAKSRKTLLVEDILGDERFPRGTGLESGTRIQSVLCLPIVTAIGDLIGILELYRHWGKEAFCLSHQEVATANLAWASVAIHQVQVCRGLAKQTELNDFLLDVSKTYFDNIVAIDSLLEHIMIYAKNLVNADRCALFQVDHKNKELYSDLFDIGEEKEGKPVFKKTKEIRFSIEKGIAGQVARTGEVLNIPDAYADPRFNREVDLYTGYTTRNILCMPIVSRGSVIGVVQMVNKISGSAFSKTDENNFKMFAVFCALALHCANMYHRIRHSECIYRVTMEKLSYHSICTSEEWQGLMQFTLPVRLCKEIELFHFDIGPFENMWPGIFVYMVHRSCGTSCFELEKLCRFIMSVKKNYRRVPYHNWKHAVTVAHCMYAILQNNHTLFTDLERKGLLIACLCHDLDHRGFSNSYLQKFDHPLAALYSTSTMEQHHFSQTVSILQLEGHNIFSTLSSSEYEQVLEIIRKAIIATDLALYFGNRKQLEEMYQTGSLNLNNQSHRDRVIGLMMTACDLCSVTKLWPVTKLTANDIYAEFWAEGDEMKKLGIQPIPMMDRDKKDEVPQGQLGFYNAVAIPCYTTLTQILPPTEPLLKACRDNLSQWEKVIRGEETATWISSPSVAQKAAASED
# Endothelin receptor type B (Homo sapiens), sequence (P24530 whole entry): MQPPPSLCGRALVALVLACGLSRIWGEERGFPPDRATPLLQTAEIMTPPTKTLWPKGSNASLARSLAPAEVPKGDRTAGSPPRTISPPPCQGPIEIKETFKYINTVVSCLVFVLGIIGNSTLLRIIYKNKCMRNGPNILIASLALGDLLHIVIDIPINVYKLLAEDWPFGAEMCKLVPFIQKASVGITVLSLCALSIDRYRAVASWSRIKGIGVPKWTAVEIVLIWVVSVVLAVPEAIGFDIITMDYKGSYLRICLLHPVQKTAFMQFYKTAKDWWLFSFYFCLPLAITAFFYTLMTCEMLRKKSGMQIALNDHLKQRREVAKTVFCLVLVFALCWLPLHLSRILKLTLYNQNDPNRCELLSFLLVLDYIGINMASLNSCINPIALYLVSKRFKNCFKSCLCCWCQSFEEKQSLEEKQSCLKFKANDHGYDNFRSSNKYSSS
# Histamine H2 receptor (Homo sapiens), sequence (P25021 whole entry): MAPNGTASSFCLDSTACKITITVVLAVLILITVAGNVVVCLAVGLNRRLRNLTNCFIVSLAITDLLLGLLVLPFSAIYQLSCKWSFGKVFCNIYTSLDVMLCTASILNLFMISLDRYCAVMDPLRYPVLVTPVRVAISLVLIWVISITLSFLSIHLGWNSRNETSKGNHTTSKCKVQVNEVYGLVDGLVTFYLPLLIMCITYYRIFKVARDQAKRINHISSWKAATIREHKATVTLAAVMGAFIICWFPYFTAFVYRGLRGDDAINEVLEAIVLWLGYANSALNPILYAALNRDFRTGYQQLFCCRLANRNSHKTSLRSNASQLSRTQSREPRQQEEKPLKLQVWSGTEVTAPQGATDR
# Endothelin-1 receptor (Homo sapiens), sequence (P25101 whole entry): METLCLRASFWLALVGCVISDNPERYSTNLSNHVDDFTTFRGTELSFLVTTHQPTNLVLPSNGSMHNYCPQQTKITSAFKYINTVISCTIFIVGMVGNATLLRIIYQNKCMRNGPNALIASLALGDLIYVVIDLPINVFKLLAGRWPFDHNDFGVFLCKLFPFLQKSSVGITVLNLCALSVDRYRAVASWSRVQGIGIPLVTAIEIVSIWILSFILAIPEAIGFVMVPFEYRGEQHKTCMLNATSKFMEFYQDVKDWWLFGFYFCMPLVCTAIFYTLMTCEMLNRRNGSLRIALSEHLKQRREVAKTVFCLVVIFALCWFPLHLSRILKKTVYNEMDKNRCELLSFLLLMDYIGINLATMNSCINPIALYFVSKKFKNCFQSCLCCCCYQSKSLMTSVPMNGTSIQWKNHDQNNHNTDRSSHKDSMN
# Alpha-1B adrenergic receptor (Rattus norvegicus), sequence (P15823 whole entry): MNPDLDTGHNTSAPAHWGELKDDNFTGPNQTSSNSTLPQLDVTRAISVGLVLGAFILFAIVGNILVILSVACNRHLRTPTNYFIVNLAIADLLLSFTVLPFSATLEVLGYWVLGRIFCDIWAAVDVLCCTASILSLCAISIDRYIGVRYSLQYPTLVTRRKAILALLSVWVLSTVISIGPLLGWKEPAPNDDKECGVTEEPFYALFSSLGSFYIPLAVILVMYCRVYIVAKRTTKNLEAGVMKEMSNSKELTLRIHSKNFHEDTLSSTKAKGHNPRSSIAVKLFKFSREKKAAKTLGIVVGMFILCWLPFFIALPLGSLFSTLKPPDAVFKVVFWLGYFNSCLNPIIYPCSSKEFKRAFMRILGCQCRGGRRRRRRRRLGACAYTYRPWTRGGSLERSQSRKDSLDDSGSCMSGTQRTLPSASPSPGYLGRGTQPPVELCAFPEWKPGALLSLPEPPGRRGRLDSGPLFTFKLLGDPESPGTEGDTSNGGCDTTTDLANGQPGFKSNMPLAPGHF
smiles,measurement,setting,value
CCOC(=O)N1CCC(CN2CCC3(CC2)CN(C(=O)N(C)C)c2ncccc23)CC1.O=C(O)/C=C/C(=O)O,inhibition,[1],-1%
same,Cmax,[2],30.7 ng/mL
same,Activity,[3],2%
same,inhibition,[4],4%
same,inhibition,[5],4%
same,inhibition,[6],3%
same,inhibition,[7],10%
same,inhibition,[8],15%
same,inhibition,Rattus norvegicus [9],14%
same,inhibition,Rattus norvegicus [10],16%
same,inhibition,[11],9%
same,inhibition,[12],7%
same,half-life,[13],4.76 h
same,inhibition,[14],13%
same,Activity,[15],11%
same,Cmax,[16],207 ng/mL
same,inhibition,Homo sapiens,9%
same,inhibition,[17],11%
same,inhibition at 3 µM,[18],-21%
same,inhibition,Rattus norvegicus [19],4%
same,Intrinsic activity,[20],76%
same,inhibition,[21],15%
same,inhibition,[22],57%
same,inhibition,[23],-2%
same,Activity,[24],76%
same,inhibition,Oryctolagus cuniculus,3%
same,inhibition,[25],11%
same,Vd,[26],2.3 L/kg
same,pEC50,[27],7.33

# From ChEMBL document CHEMBL3351422, “Discovery of N-substituted 7-azaindoline derivatives as potent, orally available M1 and M4 muscarinic acetylcholine receptors selective agonists” (Bioorg Med Chem Lett, 2014)
